The text below walks through data of US20130149721A1, “Methods for Inhibiting Amyloid Precursor Protein and Beta-Amyloid Production and Accumulation” (WISCONSIN ALUMNI RESEARCH FOUNDATION, priority 2008, published 2013).

Structures are written as SMILES.

One data set addresses rat mGluR2 (Rattus norvegicus, UniProt P31421). Conditions: doses up to 10 μm; cited from earlier work.
The next data set concerns the target rat mGluR7a (Rattus norvegicus, UniProt P35400). Conditions: doses up to 10 μm; cited from earlier work.
The subject of the next data set is anxiety in mice. The settings on record: cited from earlier work.
The target of a further data set is mGluR5 (Homo sapiens, UniProt P41594). Conditions: shared allosteric modulatory site; cited from earlier work.
Data set [1] concerns Aβ1-40 and Aβ1-42 in Fmr-1 KO mouse brain. Nature of the data set: Brain region Aβ ELISA after fenobam-supplemented diet in Fmr-1 KO mice.
Protocol: Fmr-1 KO mice were fed placebo or fenobam-supplemented lab diet for two months prior to harvesting brains for ELISA assays. Homogenates of hippocampus (H), cortex (Cx) and cerebellum (Cb) were analyzed by ELISA for Aβ1-40 and Aβ1-42. Data were plotted as a percentage of Aβ compared to levels in control mouse hippocampus. C: control, F: Fenobam.
Fmr-1 KO mice were fed placebo or fenobam-supplemented lab diet for one month prior to harvesting brains for ELISA assays. Homogenates of hippocampus (H), cortex (Cx) and cerebellum (Cb) were analyzed by ELISA for Aβ1-40 and Aβ1-42. Data were plotted as a percentage of Aβ compared to levels in control mouse hippocampus.
A further data set has as its target rat mGluR8a (Rattus norvegicus, UniProt P70579). Conditions: doses up to 10 μm; cited from earlier work.
The nature of data set [2]: Tolerability of fenobam-supplemented diet in Tg2576 mice. The data set is classed as in vivo.
Description: (§1) Mice were fed a fenobam-supplemented mouse food that was a purified ingredient diet formulated by Research Diets, Inc. (New Brunswick, N.J.) to match Purina 5015 lab diet in protein, carbohydrate and fat calories. For chronic dosing, the diet was supplemented with 0.2 g fenobam per kg lab diet and colored red for visual differentiation with the placebo food.
For data set [3], the system named is audiogenic seizures in mice. Nature of the data set: Audiogenic seizure (AGS) testing. Format: in vivo, mouse. The settings on record: treated (immunized or Purina + drug).
For a further data set, the target named is rat mGluR4a (Rattus norvegicus, UniProt P31423). Conditions: doses up to 10 μm; cited from earlier work.
Sequence of rat mGluR4a (P31423 33-912): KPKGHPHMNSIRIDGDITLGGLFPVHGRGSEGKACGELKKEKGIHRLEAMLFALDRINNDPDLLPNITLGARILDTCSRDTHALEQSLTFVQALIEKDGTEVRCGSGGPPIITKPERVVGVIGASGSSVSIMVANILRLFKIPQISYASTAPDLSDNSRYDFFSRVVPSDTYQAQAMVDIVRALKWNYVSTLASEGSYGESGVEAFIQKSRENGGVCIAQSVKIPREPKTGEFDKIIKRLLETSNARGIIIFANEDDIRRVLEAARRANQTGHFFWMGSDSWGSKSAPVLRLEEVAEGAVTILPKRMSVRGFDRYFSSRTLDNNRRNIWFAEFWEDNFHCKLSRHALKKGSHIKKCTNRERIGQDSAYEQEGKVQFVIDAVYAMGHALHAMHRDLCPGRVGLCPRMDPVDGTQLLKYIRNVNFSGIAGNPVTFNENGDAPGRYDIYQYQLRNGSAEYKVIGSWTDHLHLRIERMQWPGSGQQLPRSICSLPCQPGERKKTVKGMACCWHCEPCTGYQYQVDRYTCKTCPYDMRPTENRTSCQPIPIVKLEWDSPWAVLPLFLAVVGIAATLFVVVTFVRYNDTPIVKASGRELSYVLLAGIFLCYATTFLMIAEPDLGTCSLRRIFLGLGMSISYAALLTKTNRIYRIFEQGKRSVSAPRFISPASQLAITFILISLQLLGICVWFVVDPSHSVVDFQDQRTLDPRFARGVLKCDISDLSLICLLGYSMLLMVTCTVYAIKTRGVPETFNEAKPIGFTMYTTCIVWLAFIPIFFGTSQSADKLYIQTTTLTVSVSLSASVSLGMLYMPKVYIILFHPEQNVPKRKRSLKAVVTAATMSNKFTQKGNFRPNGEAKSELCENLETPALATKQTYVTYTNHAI
The target in another data set is rat mGluR1a (Rattus norvegicus, UniProt P23385). Conditions: doses up to 10 μm; cited from earlier work.
Sequence of rat mGluR1a (P23385 19-1199): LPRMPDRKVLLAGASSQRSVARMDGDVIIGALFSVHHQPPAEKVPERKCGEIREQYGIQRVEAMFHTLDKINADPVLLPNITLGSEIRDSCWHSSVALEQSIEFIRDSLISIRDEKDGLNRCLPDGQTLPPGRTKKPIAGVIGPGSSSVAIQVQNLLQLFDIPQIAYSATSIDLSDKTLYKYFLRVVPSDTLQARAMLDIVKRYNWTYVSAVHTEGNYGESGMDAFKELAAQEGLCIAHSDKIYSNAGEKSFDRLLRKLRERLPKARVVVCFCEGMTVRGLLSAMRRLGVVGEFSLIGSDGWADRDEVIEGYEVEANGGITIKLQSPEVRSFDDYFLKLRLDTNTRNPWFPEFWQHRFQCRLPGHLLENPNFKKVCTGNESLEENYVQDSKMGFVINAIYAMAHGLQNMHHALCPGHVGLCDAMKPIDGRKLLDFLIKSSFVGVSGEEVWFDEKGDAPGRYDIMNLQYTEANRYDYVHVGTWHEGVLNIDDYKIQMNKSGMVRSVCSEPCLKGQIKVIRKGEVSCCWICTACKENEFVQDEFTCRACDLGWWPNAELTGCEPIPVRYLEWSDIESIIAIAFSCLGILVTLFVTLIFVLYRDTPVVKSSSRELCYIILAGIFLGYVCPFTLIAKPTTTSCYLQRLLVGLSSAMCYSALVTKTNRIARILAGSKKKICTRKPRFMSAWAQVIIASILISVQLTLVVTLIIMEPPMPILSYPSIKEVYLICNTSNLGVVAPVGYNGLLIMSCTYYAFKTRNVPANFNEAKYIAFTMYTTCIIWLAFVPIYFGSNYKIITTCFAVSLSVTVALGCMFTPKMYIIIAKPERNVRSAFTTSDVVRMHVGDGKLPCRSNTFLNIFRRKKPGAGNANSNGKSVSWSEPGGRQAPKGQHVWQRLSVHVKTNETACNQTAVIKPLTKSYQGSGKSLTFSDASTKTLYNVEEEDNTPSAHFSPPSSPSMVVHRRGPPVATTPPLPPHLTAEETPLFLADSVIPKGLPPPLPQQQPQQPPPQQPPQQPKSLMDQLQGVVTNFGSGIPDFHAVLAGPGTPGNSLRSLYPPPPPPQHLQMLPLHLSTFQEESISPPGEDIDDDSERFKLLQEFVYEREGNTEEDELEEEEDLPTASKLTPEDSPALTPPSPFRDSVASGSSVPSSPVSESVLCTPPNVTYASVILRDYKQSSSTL
A further data set concerns anxiety in humans. Conditions: cited from earlier work.
Another data set has as its system anxiety in rats. Conditions: cited from earlier work.
The conditions of data set [4]: humans, cited from earlier work.
Data set [5] relates to Aβ1-40 and Aβ1-42 in Tg2576 mouse brain. Nature of the data set: Brain Aβ ELISA after chronic fenobam-supplemented diet in Tg2576 mice. The settings on record: one month.
Protocol: FIG. 12 is a graph illustrating the effects of fenobam treatment in Tg2576 mice. Tg2576 mice were fed placebo or fenobam-supplemented lab diet for one month prior to harvesting brains for ELISA assays. For chronic dosing, the diet was supplemented with 0.2 g fenobam per kg lab diet and colored red for visual differentiation with the placebo food. Whole brain homogenates from control and fenobam-treated mice were analyzed by ELISA for Aβ1-40 (left) and Aβ1-42 (right). Data were plotted as ng/mL Aβ per μg soluble brain lysate. […] The left bar in each group represents Aβ levels in mice fed with placebo food; and the right bar in each group represents Aβ levels in mice fed with fenobam-supplemented food.
as §1
After one month of chronic fenobam dosing, brain tissue was harvested and Aβ levels measured. Specifically assessed by ELISA were human (expressed from the APPSwe transgene) and mouse (endogenous) Aβ1-40 and Aβ1-42 levels.
In another data set the test system is APP translation in SN. Nature of the data set: 35S-Met labeling and immunoprecipitation of newly synthesized APP in synaptoneurosomes. The data set is classed as cell-based, mouse. The settings on record: WT SN, 40 μM anisomycin + 100 μM DHPG, 15 min. How it is done:
WT and KO SNs (450 μl) were mixed with 25 μl Redivue Pro-Mix-L [^35S] for 5 min prior to stimulation with 25 μl 2 mM DHPG. Samples were flash frozen at the indicated times. To analyze new protein synthesis, SN lysates were cleared of free isotope, Percoll®, and sucrose by purification with the PAGEprep Advance kit according to the manufacturer's directions. Protein concentrations were determined by the BCA assay, and 15 μg protein was denatured and loaded per lane on 12% SDS gels for content analysis. Gels were dried and exposed to a phosphorimager screen to identify the results of these assays.
To specifically analyze APP synthesis, WT and KO SN lysates (500 μl) were immunoprecipitated with APP antibody. Briefly, SN lysates were precleared with protein A magnetic beads in 1 ml volumes containing 500 μl SNs, 500 μl 2×IP buffer (20 mM HEPES (pH 7.4), 400 mM NaCl, 60 mM EDTA (pH 8), and 2% Triton X-100), protease inhibitor cocktail, and 100 μl packed fresh protein A magnetic beads. For the immunoprecipitations, 10 μg anti-APP antibody (Zymed catalog number 51-2700) and fresh protein A magnetic beads were added and mixed overnight at 4° C. The beads were washed three times with IP buffer, and the final, washed pellets were suspended in 40 μl 2×SDS sample buffer and boiled for 5 min; the proteins were then separated on 12% SDS gels. The gels were transferred to a nitrocelluose membrane, dried, exposed to a phosphorimager screen, and scanned on a STORM 860 phosphorimager (Molecular Dynamics http://www6.amershambiosciences.com). APP bands at 120 kDa were quantitated with ImageQuant software (GE Healthcare Life Sciences, http://www4.amershambiosciences.com).
For mGluR5 inhibitor studies, SNs (425 μl) were preincubated with 25 μl anisomycin (40 μM final concentration) or MPEP (10 μM final concentration) for 10 min prior to the addition of 25 μl ^35S-Met for 5 min and stimulation with DHPG (100 μM final concentration) for 15 min. Samples were processed as described in the preceding paragraph.
To further assess FMRP regulation of APP levels in brain, cortical SN were prepared from WT mice and overall protein synthesis analyzed in response to DHPG (100 μM)-induced mGluR5 activation. SN were metabolically active as assessed by ^35S-Met incorporation. […]
These conclusions were tested by assessing the effects on APP translation of contacting SN with a group 1 mGluR5 antagonist, 2-methyl-6-(phenylethynyl)-pyridine (MPEP). […] To assess the effect of MPEP, a specific mGluR5 antagonist, on DHPG stimulation of de novo APP synthesis, SN were pre-treated with 10 μM MPEP for 10 min prior to the addition of ^35S-Met for 5 min and stimulation with 100 μM DHPG for 15 min. ^35S-Met-labeled APP was immunoprecipitated with anti-APP antibodies and analyzed by SDS-PAGE. […]

Sequence of rat mGluR7a (P35400 35-915): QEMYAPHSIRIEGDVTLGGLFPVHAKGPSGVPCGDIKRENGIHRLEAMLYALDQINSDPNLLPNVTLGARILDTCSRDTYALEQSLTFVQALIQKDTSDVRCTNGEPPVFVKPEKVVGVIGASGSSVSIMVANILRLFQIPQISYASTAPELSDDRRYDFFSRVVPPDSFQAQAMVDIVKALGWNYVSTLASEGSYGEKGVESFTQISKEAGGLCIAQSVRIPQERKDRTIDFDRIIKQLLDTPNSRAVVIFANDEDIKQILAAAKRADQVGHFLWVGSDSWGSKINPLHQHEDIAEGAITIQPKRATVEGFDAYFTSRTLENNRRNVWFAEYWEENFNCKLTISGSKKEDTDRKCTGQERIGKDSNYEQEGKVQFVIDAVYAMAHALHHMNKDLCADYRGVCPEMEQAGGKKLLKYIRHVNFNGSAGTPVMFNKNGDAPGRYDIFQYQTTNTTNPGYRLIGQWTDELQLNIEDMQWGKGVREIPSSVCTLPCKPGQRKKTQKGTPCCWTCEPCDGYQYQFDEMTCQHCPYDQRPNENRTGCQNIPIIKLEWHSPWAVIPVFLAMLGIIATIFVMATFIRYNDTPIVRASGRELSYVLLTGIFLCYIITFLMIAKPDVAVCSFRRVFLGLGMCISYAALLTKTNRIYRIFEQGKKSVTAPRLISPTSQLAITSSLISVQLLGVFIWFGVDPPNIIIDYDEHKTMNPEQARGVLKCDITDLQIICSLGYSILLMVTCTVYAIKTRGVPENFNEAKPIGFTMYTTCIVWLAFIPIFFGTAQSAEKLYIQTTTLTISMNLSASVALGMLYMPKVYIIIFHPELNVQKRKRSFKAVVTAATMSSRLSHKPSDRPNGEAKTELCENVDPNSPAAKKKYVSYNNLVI
Sequence of rat mGluR2 (P31421 19-872): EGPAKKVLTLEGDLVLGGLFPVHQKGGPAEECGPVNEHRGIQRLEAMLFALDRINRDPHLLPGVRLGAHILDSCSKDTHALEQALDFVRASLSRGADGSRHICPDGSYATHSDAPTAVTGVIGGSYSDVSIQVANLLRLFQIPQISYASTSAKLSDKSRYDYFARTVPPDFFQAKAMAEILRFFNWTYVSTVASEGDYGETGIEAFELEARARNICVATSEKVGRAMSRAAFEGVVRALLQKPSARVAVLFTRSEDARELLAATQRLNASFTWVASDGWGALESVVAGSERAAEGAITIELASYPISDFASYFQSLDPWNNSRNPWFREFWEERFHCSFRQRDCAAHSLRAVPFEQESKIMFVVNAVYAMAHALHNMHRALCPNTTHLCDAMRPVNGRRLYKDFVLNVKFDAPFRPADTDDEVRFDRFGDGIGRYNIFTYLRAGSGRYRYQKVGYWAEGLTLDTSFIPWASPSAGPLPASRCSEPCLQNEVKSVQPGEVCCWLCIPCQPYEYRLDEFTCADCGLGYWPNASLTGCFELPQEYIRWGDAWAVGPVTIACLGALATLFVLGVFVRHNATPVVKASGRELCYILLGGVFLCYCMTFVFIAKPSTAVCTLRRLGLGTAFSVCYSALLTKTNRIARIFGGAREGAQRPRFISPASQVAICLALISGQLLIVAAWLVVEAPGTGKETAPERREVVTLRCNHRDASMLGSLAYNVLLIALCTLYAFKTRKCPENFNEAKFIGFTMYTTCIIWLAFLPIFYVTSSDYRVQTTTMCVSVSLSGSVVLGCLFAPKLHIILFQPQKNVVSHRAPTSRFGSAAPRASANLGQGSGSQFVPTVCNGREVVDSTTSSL
Sequence of rat mGluR8a (P70579 34-908): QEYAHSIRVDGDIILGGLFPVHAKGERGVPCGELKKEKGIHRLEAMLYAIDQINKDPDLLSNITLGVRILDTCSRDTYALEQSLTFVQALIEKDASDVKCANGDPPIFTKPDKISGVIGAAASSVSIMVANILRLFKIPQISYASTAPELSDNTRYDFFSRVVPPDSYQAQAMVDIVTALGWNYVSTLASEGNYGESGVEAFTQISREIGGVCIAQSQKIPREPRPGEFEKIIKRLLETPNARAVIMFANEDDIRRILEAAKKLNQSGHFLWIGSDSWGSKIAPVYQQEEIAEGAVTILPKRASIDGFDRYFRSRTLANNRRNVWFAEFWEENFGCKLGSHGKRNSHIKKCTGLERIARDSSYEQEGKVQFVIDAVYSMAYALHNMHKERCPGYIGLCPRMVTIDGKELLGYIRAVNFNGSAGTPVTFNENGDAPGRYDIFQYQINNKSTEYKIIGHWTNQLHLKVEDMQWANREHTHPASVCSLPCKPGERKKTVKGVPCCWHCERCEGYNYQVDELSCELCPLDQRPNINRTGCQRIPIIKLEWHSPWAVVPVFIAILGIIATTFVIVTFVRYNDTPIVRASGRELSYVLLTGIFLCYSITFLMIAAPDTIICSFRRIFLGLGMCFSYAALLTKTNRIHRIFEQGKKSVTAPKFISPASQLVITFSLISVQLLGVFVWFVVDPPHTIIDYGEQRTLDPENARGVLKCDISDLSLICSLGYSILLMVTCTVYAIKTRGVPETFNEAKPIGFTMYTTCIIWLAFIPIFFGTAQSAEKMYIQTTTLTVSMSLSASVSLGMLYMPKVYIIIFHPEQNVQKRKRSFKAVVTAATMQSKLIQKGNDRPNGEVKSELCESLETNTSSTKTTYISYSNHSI

As for `CN1CC(=O)N=C1NC(=O)Nc1cccc(Cl)c1.O=S(=O)(O)O` [fenobam], the “activity toward rat mGluR2” value at rat mGluR2 is recorded as “no activity”. Further, the “activity toward rat mGluR7a” value on rat mGluR7a is on record as “no activity”. Also, the effect on anxiety entry in the data set with anxiety in mice was “reduces anxiety”. Moreover, the mGluR5 antagonist character result on mGluR5 was “potent and highly selective noncompetitive antagonists”. For the same compound, the “decrease in Aβ1-42 in the cortex” value in data set [1] (fenobam food 1 month) is on record as 40%. Moreover, in [1] (fenobam food 2 months), the “Aβ1-42 in hippocampus and cortex” value is on record as “modest reductions”; the “decrease in Aβ1-40 in cerebellum” value is on record as 19%; the “decrease in Aβ1-40 in cortex” value stood at 26%; the “reduction in Aβ1-42 in the cerebellum” value was 4.2 fold. For the same compound, the “activity toward rat mGluR8a” value on rat mGluR8a is reported as “no activity”. Further, in data set [2] (Tg2576 mice, 0.2 g fenobam per kg diet, chronic dosing), the premature death result is “no incidences of premature death”. In [2] (mouse, in vivo), the adverse side effects result was “No adverse side effects” and the weight gain result is “normal weight gain”. Further, in [3] (DS (Ts65Dn) mice), the “% Death” value stood at 0% and the “% WR” value was 58%. Also, in [3] (DS (Ts65Dn) mice, listed as Fenobaum), the “% AGS” value came out at 0%. In addition, the “% AGS” value in data set [3] (DS (Ts65Dn) mice, listed as fenobaum) is “attenuates seizures”. In addition, in data set [3] (WT littermates of DS model), the “% AGS” value is reported as 0%, the “% Death” value is reported as 0% and the “% WR” value came to 0%. On rat mGluR4a, the “activity toward rat mGluR4a” value is “no activity”. For the same compound, the “activity toward rat mGluR1a” value on rat mGluR1a is reported as “no activity”. Moreover, the effect on anxiety result in the data set on anxiety in humans is listed as “reduces anxiety”. Further, in the data set with anxiety in rats, the effect on anxiety entry was “reduces anxiety”. Besides, in data set [4] (therapeutically-effective dosages), the side effects result is “no harmful side effects”. In addition, the “side effects in one study (Friedmann et al., 1980)” value in [4] is recorded as “psycho-stimulating properties”. Besides, in [5] (Tg2576, fenobam diet), the “mouse Aβ1-42 levels” value is given as “no change”. Besides, in data set [5] (Tg2576 males on fenobam food), the “mouse Aβ1-40 level in brain” value is 60 ng/mL/µg. In addition, in data set [5] (Tg2576 mice, 0.2 g fenobam per kg diet), the “human Aβ levels, control vs fenobam-fed” value was “No change”. Further, in data set [5] (male Tg2576, 0.2 g fenobam per kg diet), the “decrease in mouse Aβ1-40 levels” value amounted to 11.5 fold.

With `COc1ccc(C[C@H]2NC[C@H](O)[C@H]2OC(C)=O)cc1` [anisomycin], in the data set on APP translation in SN, the “effect on mGluR activation of APP translation” value is given as “blocked”.
